Measured values reported in patent publication US7759345B2, “Antitumoral derivatives of ET-743” (priority 2001, dated 2010).

Experiments:
SK-MEL-28 = assay: Inhibition of cells growth by colorimetric assay (SRB), SK-MEL-28; format: cell-based; details: SRB, 48 hours exposure
Outline: (§1)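 Human cancer cells (5×10^3/well) attached 18 h in RPMI 1640 10% FBS, then exposed 48 h at 37°C to compounds from 10 to 10^−8 μg/ml in DMSO/EtOH/PBS. TCA-fixed, SRB-stained, OD read at 490 nm; GI, TGI and LC derived from triplicate wells.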

A-549 = assay: Inhibition of cells growth by colorimetric assay (SRB), A-549; format: cell-based; details: SRB, 48 hours exposure
Outline: as §1

HMEC1 = assay: Inhibition of cells growth by colorimetric assay (SRB), HMEC1; format: cell-based; details: SRB, 48 hours exposure
Outline: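 Sulforhodamine B protein-stain readout (490 nm) after 48 h drug exposure, with GI, TGI and LC parameters calculated from triplicate means. Cells seeded at 5×10^3 per well, allowed 18 h drug-free attachment; dose range 10 to 10^−8 μg/ml, vehicle DMSO/EtOH/PBS (0.5:0.5:99).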

IGROV-1 = assay: Inhibition of cells growth by colorimetric assay (SRB), IGROV-1; format: cell-based; details: SRB, 48 hours exposure
Outline: as §1

DU-145 = assay: Inhibition of cells growth by colorimetric assay (SRB), DU-145; format: cell-based; details: SRB, 48 hours exposure
Outline: as §1

LoVo-Dox = assay: Inhibition of cells growth by colorimetric assay (SRB), LoVo-Dox; format: cell-based; details: SRB, 48 hours exposure
Outline: as §1

SK-OV-3 = assay: Inhibition of cells growth by colorimetric assay (SRB), SK-OV-3; format: cell-based; details: SRB, 48 hours exposure
Outline: as §1

K-562 = assay: Inhibition of cells growth by colorimetric assay (SRB), K-562; format: cell-based; details: SRB, 48 hours exposure
Outline: as §1

LoVo = assay: Inhibition of cells growth by colorimetric assay (SRB), LoVo; format: cell-based; details: SRB, 48 hours exposure
Outline: as §1

PANC-1 = assay: Inhibition of cells growth by colorimetric assay (SRB), PANC-1; format: cell-based; details: SRB, 48 hours exposure
Outline: as §1

LNCaP = assay: Inhibition of cells growth by colorimetric assay (SRB), LNCaP; format: cell-based; details: SRB, 48 hours exposure
Outline: as §1

HT-29 = assay: Inhibition of cells growth by colorimetric assay (SRB), HT-29; format: cell-based; details: SRB, 48 hours exposure
Outline: as §1

SK-BR-3 = assay: Inhibition of cells growth by colorimetric assay (SRB), SK-BR-3; format: cell-based; details: SRB, 48 hours exposure
Outline: as §1

IGROV-ET = assay: Inhibition of cells growth by colorimetric assay (SRB), IGROV-ET; format: cell-based; details: SRB, 48 hours exposure
Outline: as §1

Excerpt for Heart: (§2) Toxicity was asssessed by the methods reported in Toxicology in Vitro, 15 (2001) 571-577, J. Luber Narod et al.: “Evaluation of the use of in vitro methodolodies as tools for screening new compounds for potential in vivo toxicity”.
Excerpt for Kidney: as §2
Excerpt for Liver: as §2
Excerpt for Myelo: as §2
Excerpt for Skeletal: as §2

COc1cc2c(cc1O)CCN(C)[C@]21CS[C@@H]2c3c(OC(C)=O)c(C)c4c(c3[C@H](COC1=O)N1C2[C@H]2c3c(cc(C)c(OC)c3O)C[C@@H]([C@@H]1O)N2C)OCO4 (some centres unmarked) [Compound 93]
Toxicity Data Heart (Heart): 4.46E-08 | GI50 (SK-MEL-28; Homo sapiens, SK-MEL-28, 48 h, MEL-28, read-out: MEL-28 GI50): 0.281 nM | CC50 (SK-MEL-28; Homo sapiens, SK-MEL-28, 48 h, read-out: MEL-28 LC50, MEL-28): 3.58 nM | MEL-28 TGI (SK-MEL-28; MEL-28): 6.24E-10 | A-549 TGI (A-549; A-549): 2.90E-09 | GI50 (A-549; Homo sapiens, A549, 48 h, A-549, read-out: A-549 GI50): 0.463 nM | LC50 (concentration for 50% cell killing) (A-549; Homo sapiens, A549, 48 h, read-out: A-549 LC50, A-549): 12.9 nM | Toxicity Data Myelo (Myelo): 3.35E-09 | HMEC-1 TGI (HMEC1; HMEC-1): 1.55E-10 | GI50 (HMEC1; Homo sapiens, HMEC-1, 48 h, HMEC-1, read-out: HMEC-1 GI50): 0.037 nM | LC50 (HMEC1; Homo sapiens, HMEC-1, 48 h, read-out: HMEC-1 LC50, HMEC-1): 0.487 nM | GI50 (IGROV-1; Homo sapiens, IGROV-1, 48 h, IGROV, read-out: IGROV GI50): 0.214 nM | CC50 (IGROV-1; Homo sapiens, IGROV-1, 48 h, read-out: IGROV LC50, IGROV): 129 nM | IGROV TGI (IGROV-1; IGROV): 6.46E-10 | Toxicity Data Kidney (Kidney): 6.32E-08 | DU-145 TGI (DU-145; DU-145): 6.30E-10 | GI50 (DU-145; Homo sapiens, DU-145, 48 h, DU-145, read-out: DU-145 GI50): 0.331 nM | CC50 (DU-145; Homo sapiens, DU-145, 48 h, read-out: DU-145 LC50, DU-145): 1.29 nM | GI50 (LoVo-Dox; Homo sapiens, 48 h, LOVO-DOX, read-out: LOVO-DOX GI50): 7.71 nM | CC50 (LoVo-Dox; Homo sapiens, 48 h, read-out: LOVO-DOX LC50, LOVO-DOX): 12900 nM | LOVO-DOX TGI (LoVo-Dox; LOVO-DOX): 9.87E-08 | Toxicity Data Liver (Liver): 1.13E-08 | GI50 (SK-OV-3; Homo sapiens, SK-OV-3, 48 h, SK-OV3, read-out: SK-OV3 GI50): 0.409 nM | LC50 (SK-OV-3; Homo sapiens, SK-OV-3, 48 h, read-out: SK-OV3 LC50, SK-OV3): 12900 nM | SK-OV3 TGI (SK-OV-3; SK-OV3): 1.29E-09 | GI50 (K-562; Homo sapiens, K562, 48 h, K-562, read-out: K-562 GI50): 0.611 nM | LC50 (50% cell killing) (K-562; Homo sapiens, K562, 48 h, read-out: K-562 LC50, K-562): 9540 nM | K-562 TGI (K-562; K-562): 1.29E-08 | GI50 (LoVo; Homo sapiens, LoVo, 48 h, LOVO, read-out: LOVO GI50): 0.768 nM | LC50 (concentration for 50% cell killing) (LoVo; Homo sapiens, LoVo, 48 h, read-out: LOVO LC50, LOVO): 12900 nM | LOVO TGI (LoVo; LOVO): 4.58E-09 | GI50 (PANC-1; Homo sapiens, PANC-1, 48 h, PANC-1, read-out: PANC-1 GI50): 0.314 nM | LC50 (concentration for 50% net cell kill) (PANC-1; Homo sapiens, PANC-1, 48 h, read-out: PANC-1 LC50, PANC-1): 12900 nM | PANC-1 TGI (PANC-1; PANC-1): 1.29E-09 | GI50 (LNCaP; Homo sapiens, LNCaP, 48 h, read-out: LNCAP GI50, LNCAP): 2.85 nM | CC50 (LNCaP; Homo sapiens, LNCaP, 48 h, read-out: LNCAP LC50, LNCAP): 129 nM | LNCAP TGI (LNCaP; LNCAP): 6.77E-09 | Toxicity Data Skeletal (Skeletal): 5.52E-10 | HT-29 TGI (HT-29; HT-29): 1.29E-08 | GI50 (HT-29; Homo sapiens, HT-29, 48 h, HT-29, read-out: HT-29 GI50): 0.635 nM | LC50 (concentration for 50% cell killing) (HT-29; Homo sapiens, HT-29, 48 h, read-out: HT-29 LC50, HT-29): 12900 nM | GI50 (SK-BR-3; Homo sapiens, SK-BR-3, 48 h, SK-BR3, read-out: SK-BR3 GI50): 0.445 nM | CC50 (SK-BR-3; Homo sapiens, SK-BR-3, 48 h, read-out: SK-BR3 LC50, SK-BR3): 9.5 nM | SK-BR3 TGI (SK-BR-3; SK-BR3): 1.96E-09 | GI50 (IGROV-ET; Homo sapiens, 48 h, IGROV-ET, read-out: IGROV-ET GI50): 21.5 nM | CC50 (IGROV-ET; Homo sapiens, 48 h, read-out: IGROV-ET LC50, IGROV-ET): 12900 nM | IGROV-ET TGI (IGROV-ET; IGROV-ET): 1.31E-07
